According to US20240041796A1, “ANTI-INFLAMMATORY COMPOSITION COMPRISING N-BENZYL-N-METHYLDECAN-1-AMINE OR A DERIVATIVE THEREOF AS AN ACTIVE INGREDIENT” (PUSAN NATIONAL UNIVERSITY INDUSTRY-UNIVERSITY COOPERATION …, priority 2022, published 2024):

Assays:
[1] = tested on: human THP-1 monocytic cell line; test: LPS-induced inflammation-related signal transduction in THP-1 cells, immunoblotting; format: cell-based; conditions: THP-1 cultured 3 hours with compound, then LPS 1 μg/ml 1 hour; FIG. 2A-B
Procedure: (§1) Each of BMDA (FMJ-G0) or DMMA (FMJ-G4) was added to a culture medium at concentrations of […], and 1 μM in a 6-well plate. The human THP-1 monocytic cell line (5×10^5 cells/well) was cultured therein for 3 hours. Each well was treated with lipopolysaccharide at a concentration of 1 μg/ml. After 1 hour, centrifugation was performed to obtain a supernatant which was used in an ELISA for inflammatory cytokine evaluation. Cell lysate was added to the collected THP-1 cells for immunoblotting.

[2] = tested on: human THP-1 monocytic cell line; test: ELISA of inflammatory cytokines in supernatant of LPS-treated THP-1 cells; format: cell-based; conditions: LPS 1 μg/ml, FIG. 2C
Procedure: as §1

DBA/J1 male mice [3] = test: Rheumatoid arthritis model induced by type 2 bovine collagen, oral administration; format: in vivo, mouse; conditions: for inflammation and synovitis of joint tissues: H&E stained joint sections, FIG. 5A-B; for expression of HO-1 in the joints / expression of Nrf2 in the joints: immunoblotting, FIG. 6B; for length of the spleen / weight of the spleen / swelling of the feet / weight loss caused by rheumatism induced by collagen: oral 20 mg/body weight Kg for 21 days; for length of the spleen / weight of the spleen: vs control, FIG. 4C-D; for swelling of the feet: vs soybean oil control, FIG. 4A-B; for weight loss caused by rheumatism induced by collagen: FIG. 4B
Procedure: Rheumatoid arthritis was induced in 7-week-old DBA/J1 male mice. We thoroughly mixed the type 2 collagen at a concentration of 2 mg/mL with CFA (Complete Freund's Adjuvant) in the mixing ratio 1:1. We injected 0.1 mL (100 μg) of the mixture intradermally to a position away 2 cm from a base of the tail. After 2 weeks, we mixed the type 2 collagen with IFA instead of CFA in the mixing ratio 1:1. We administered the mixture subcutaneously to the base of the tail in the same amount and volume as those in the first injection. After 3 days, we grouped the mice into 4 groups and performed second administration thereto.
(§2) In one example, BMDA (FMJ-G0) and a derivative thereof (DMMA, FMJ-G4) at a concentration of 2.5 mg/mL were orally administered to male mice in a volume of 200 μL (20 mg/body weight Kg) for 21 days. In a control group, soybean oil was orally administered thereto.
(§3) During the experiment, the insteps of the forelimbs and hindlimbs were measured with a caliper three times a week, and the mice were suffocated, and joint areas were prepared for immunohistochemical staining and immunoblotting. Moreover, the spleen was removed therefrom and a size thereof was measured. Further, blood was drawn through the hepatic portal vein to prepare serum. A specific method was as follows. • 1) Paraffin sections were prepared as the joints including the ankles of the forelimbs. At this time, decalcification is performed first, followed by sectioning the same at a thickness of 4 μm, and H&E staining. • 2) The cell lysis solution was added thereto, and then we crushed the tissue with a sonicator, which was prepared for immunoblotting. • 3) Trisol solution was added to the joint tissue, the tissue was pulverized in a sonicator, and centrifuged, and the Trisol solution was used to precipitate proteins and DNA for entire RNA separation, and the entire RNA was collected from the supernatant obtained via the centrifugation. c-DNA was synthesized using oligo-dT primer and reverse transcriptase, and then, quantitative qRT-PCR and immunoblotting were performed thereon.

DBA/J1 male mice [4] = test: Serum AST and ALT activity (hepatotoxicity indicators) in the collagen-induced rheumatoid arthritis model; format: in vivo, mouse; conditions: oral administration for 3 weeks; FIG. 7
Procedure: as §2, §3

SMILES	activity of JNK activated by LPS [1]	activity of p38 MAPK activated by LPS [1]	inflammation-related signaling pathway leading to p38 MAPK-MK2 [1]	production of IL-1β [2]	production of TNF-α [2]	inflammation and synovitis of joint tissues (DBA/J1 male mice [3])	expression of HO-1 in the joints (DBA/J1 male mice [3])	expression of Nrf2 in the joints (DBA/J1 male mice [3])	length of the spleen (DBA/J1 male mice [3])	weight of the spleen (DBA/J1 male mice [3])	swelling of the feet (DBA/J1 male mice [3])	weight loss caused by rheumatism induced by collagen (DBA/J1 male mice [3])	activity of ALT enzyme in serum (DBA/J1 male mice [4])	activity of AST enzyme in serum (DBA/J1 male mice [4])
CCCCCCCCCCN(C)Cc1ccccc1 [BMDA, N-benzyl-N-methyldecan-1-amine]	suppressed	suppressed	inhibited	inhibited	inhibited	significantly reduced	increased	increased	reduced	reduced	much smaller	did not restore	did not increase	did not increase
CCCCCCCCCCN(C)Cc1ccc(OC)cc1 [DMMA, Decyl-(4-methoxy-benzyl)-methyl-amine]	suppressed	suppressed	inhibited	inhibited	inhibited	significantly reduced	increased	increased	reduced	reduced	much smaller	did not restore	did not increase	did not increase
